The source of these data is PMC12735872, “Development of ^18F/^11C-Labeled Pyrrolo-Pyridine/Pyrimidine LRRK2 Selective PET Radioligands” (Pharmaceuticals, 2025).

One may read the Papp A→B as the apparent permeability from the apical to the basolateral side of a cell layer. What is called fraction unbound is the share of the substance not bound to proteins or other matrix. Read a low fraction unbound as little free substance.

The target in one series is LRRK2 wild-type (WT) (Homo sapiens, UniProt Q5S007). In words: LRRK2 wild-type Lanthascreen. Format: biochemical.
The target in another series is LRRK2 G2019S (Homo sapiens, UniProt Q5S007, G2019S). In words: LRRK2 G2019S Lanthascreen. It is filed as biochemical. A general note: In TR-FRET formats the signal depends on donor and acceptor labels being close together.
The subject of another series is MDR1 (P-gp). In words: MDR1-MDCK permeability and efflux ratio. It is filed as in vitro ADME. To be noted: dog, assay described in ref. 17; for Papp A→B: MDCK-MDR1; for efflux ratio: MDR1-MDCK, read-out: B:A/A:B (efflux ratio). The text has this:
Table 1 LRRK2 wild-type (WT) and G2019S Lanthascreen, MDR1-MDCK permeability (Papp A:B), and efflux ratio (B:A/A:B), free fractions in plasma (fp) and brain homogenate (fb) and PET Multi-Parameter Optimization (MPO) score of Compounds 1, 2, and 3. | column: Papp A:B ^2 (MDR1-MDCK) (cm/s × 10^−6); B:A/A:B ^2

Series [1] in a line: Free fraction in plasma (fp). It is filed as in vitro ADME. To be noted: method ref. 18. The text has this: Table 1 LRRK2 wild-type (WT) and G2019S Lanthascreen, MDR1-MDCK permeability (Papp A:B), and efflux ratio (B:A/A:B), free fractions in plasma (fp) and brain homogenate (fb) and PET Multi-Parameter Optimization (MPO) score of Compounds 1, 2, and 3. | column: fp ^3 (%)

Series [2] can be described thus: Free fraction in brain homogenate (fb). It is filed as in vitro ADME. To be noted: method ref. 18. From the text: Table 1 LRRK2 wild-type (WT) and G2019S Lanthascreen, MDR1-MDCK permeability (Papp A:B), and efflux ratio (B:A/A:B), free fractions in plasma (fp) and brain homogenate (fb) and PET Multi-Parameter Optimization (MPO) score of Compounds 1, 2, and 3. | column: fb ^3 (%)

For series [3], the system named is LRRK2. In words: In vitro autoradiography, NHP brain slices. It is filed as binding. To be noted: cold compound 10 µM. The protocol:
Whole brain hemispheres were sectioned into horizontal slices with a thickness of 100 µm using a Leica cryomacrocut system. The autoradiographic procedures followed the same protocols established in previous studies conducted in our laboratory. The whole-hemisphere sections of 100 micron thickness were incubated for 90 min at room temperature with their corresponding radiotracer (4 MBq/200 mL) in TRIS buffer (pH 7.4) containing sodium chloride (120 mM), potassium chloride (5 mM), calcium chloride (2 mM), and albumin (0.1% w/v). After incubation, sections were washed three times in the same buffer at room temperature for five minutes each, briefly dipped in ice-cold distilled water, dried, and then placed in the phosphor imaging plates. Binding density standards were prepared by serial dilution of the radioligand stock solution in the assay buffer. Readings were taken with the Fujifilm BAS-5000 (Fujifilm, Tokyo, Japan), while quantitative analysis was conducted with the Multi Gauge 3.2 image analysis software (Fujifilm, Tokyo, Japan). For blocking experiments, adjacent brain sections were co-incubated with LuAF66583 (0.1 µM or 10 µM). […] The thickness differed from human tissue (20 µm).

Series [4] addresses T1, LRRK2 (Homo sapiens, UniProt Q5S007).
T1 construct: Human brains without pathological findings were acquired from the National Institute of Forensic Medicine; from tissue; host or cells: human post-mortem control brain, whole-hemisphere sections (100 µm)
In words: In vitro autoradiography, human whole-hemisphere brain slices. It is filed as binding. To be noted: human brain slices; cold compound 10 µM. The method, then:
Human brains without pathological findings were acquired from the National Institute of Forensic Medicine at Karolinska Institutet in Stockholm, Sweden. These brains were obtained during forensic autopsies (designated as control brain) and were processed in a manner like previously described methods. […] The brain was removed, and its tissues were kept in −85 °C until the sectioning process. The whole brain hemispheric slices were subsequently maintained at −25 °C until the commencement of autoradiography procedures. […] The sectioning of the brain and the autoradiography experiments were performed at the Psychiatry section, Department of Neuroscience, Karolinska Institutet, Sweden.
Whole brain hemispheres were sectioned into horizontal slices with a thickness of 100 µm using a Leica cryomacrocut system. The autoradiographic procedures followed the same protocols established in previous studies conducted in our laboratory. The whole-hemisphere sections of 100 micron thickness were incubated for 90 min at room temperature with their corresponding radiotracer (4 MBq/200 mL) in TRIS buffer (pH 7.4) containing sodium chloride (120 mM), potassium chloride (5 mM), calcium chloride (2 mM), and albumin (0.1% w/v). After incubation, sections were washed three times in the same buffer at room temperature for five minutes each, briefly dipped in ice-cold distilled water, dried, and then placed in the phosphor imaging plates. Binding density standards were prepared by serial dilution of the radioligand stock solution in the assay buffer. Readings were taken with the Fujifilm BAS-5000 (Fujifilm, Tokyo, Japan), while quantitative analysis was conducted with the Multi Gauge 3.2 image analysis software (Fujifilm, Tokyo, Japan). For blocking experiments, adjacent brain sections were co-incubated with LuAF66583 (0.1 µM or 10 µM).

Where two headings read alike, the source gives them in different places.

Sequence of LRRK2 G2019S (Q5S007 whole entry G2019S): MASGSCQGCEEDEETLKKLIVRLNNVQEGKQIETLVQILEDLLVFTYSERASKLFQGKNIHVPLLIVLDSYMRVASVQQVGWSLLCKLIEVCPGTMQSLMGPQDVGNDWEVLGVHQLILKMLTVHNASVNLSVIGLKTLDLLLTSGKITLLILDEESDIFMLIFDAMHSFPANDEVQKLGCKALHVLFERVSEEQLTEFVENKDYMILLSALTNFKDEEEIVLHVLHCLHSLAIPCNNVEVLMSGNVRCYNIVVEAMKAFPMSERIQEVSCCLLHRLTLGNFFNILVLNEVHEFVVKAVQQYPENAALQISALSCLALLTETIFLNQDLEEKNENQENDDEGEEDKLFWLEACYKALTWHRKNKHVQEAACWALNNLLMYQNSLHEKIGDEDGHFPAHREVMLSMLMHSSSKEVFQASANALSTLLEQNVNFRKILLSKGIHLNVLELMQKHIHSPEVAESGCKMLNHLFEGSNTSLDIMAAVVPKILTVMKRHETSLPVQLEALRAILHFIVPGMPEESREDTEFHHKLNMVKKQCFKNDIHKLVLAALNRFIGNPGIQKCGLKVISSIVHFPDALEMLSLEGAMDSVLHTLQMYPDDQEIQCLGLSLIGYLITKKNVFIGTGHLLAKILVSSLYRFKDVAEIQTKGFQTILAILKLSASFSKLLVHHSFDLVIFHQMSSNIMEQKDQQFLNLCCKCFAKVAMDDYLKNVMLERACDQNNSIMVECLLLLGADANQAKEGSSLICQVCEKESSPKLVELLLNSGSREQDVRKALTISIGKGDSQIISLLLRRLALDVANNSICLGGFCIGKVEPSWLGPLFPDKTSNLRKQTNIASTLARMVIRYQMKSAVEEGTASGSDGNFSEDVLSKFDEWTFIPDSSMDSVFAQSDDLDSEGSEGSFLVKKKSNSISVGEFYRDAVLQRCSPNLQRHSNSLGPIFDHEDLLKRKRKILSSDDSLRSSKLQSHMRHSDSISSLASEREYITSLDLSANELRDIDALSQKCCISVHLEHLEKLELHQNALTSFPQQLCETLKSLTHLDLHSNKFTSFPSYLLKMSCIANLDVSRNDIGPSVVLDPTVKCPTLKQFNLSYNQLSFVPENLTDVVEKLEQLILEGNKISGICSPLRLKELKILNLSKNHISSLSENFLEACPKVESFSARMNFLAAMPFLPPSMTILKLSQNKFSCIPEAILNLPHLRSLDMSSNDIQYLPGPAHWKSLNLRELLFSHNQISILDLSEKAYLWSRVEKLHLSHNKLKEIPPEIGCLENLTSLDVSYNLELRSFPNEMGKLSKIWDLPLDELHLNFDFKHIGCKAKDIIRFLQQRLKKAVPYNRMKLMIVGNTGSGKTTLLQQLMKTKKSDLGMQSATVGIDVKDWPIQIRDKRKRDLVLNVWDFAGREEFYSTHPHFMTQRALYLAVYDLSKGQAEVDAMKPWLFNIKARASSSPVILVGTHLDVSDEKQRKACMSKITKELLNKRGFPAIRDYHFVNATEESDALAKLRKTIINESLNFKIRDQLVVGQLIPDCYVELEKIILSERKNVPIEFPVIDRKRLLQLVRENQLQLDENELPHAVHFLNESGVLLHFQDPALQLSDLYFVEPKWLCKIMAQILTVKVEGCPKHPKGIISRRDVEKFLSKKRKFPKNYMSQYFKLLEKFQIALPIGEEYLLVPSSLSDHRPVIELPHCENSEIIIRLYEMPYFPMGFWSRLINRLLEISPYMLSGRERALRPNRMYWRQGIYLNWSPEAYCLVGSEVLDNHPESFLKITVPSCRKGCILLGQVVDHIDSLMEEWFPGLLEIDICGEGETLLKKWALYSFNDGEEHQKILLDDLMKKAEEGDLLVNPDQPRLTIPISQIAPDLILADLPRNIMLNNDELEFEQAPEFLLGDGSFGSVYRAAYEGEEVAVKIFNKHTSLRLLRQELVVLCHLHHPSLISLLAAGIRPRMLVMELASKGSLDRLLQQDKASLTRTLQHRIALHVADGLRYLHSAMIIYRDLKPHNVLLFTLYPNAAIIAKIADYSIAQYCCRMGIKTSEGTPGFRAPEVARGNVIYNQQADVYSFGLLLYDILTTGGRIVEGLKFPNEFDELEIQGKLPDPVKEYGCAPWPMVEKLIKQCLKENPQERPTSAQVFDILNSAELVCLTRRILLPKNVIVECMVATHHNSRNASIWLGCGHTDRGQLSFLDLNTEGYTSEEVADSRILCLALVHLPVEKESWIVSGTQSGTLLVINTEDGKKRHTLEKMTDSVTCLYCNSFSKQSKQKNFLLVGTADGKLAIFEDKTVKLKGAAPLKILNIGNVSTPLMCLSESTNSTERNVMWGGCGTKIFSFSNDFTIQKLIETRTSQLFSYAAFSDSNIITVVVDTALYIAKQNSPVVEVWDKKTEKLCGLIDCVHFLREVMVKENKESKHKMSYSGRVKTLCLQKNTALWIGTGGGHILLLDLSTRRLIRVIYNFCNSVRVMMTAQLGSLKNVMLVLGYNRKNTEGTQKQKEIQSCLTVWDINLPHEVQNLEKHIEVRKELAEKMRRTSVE
T1 sequence (Q5S007 whole entry): as the sequence (Q5S007 whole entry G2019S) above, with S2019G counted along it
Sequence of LRRK2 wild-type (WT) (Q5S007 whole entry): as the sequence (Q5S007 whole entry G2019S) above, with S2019G counted along it

For the molecule `C[C@@H]1C[C@@H](F)CN1c1c(C#N)c2c(N)nccc2n1C` [Compound 1, 4-Amino-2-((2R,4R)-4-fluoro-2-methylpyrrolidin-1-yl)-1-methyl-1H-pyrrolo[3,2-c]pyridine-3-carbonitrile], the Ki on LRRK2 wild-type (WT) (assay described in ref. 16, read-out: LRRK2 Lanthascreen WT cKi) turned out to be 0.7 nM; at LRRK2 G2019S (assay described in ref. 16, read-out: LRRK2 Lanthascreen G2019S cKi), 1 nM. Moreover, in the series with MDR1 (P-gp), the Papp A→B came out at 31 ×10⁻⁶ cm/s. The efflux ratio in the series on MDR1 (P-gp) amounted to 0.66. Further, the results for the fraction unbound in series [1] and in series [2] were 0.38 and 0.13, respectively. Also, the “Blocking of [^18F]1 binding (ARG)” value in the series with LRRK2 [3] and on LRRK2 [4] was “effectively blocked” each time.

For `C[C@@H]1CCCN1c1c(C#N)c2c(N)nc(Nc3cnn(C)c3)nc2n1C` [Compound 3, (R)-4-amino-7-methyl-2-((1-methyl-1H-pyrazol-4-yl)amino)-6-(2-methylpyrrolidin-1-yl)-7H-pyrrolo[2,3-d]pyrimidine-5-carbonitrile], the Ki at LRRK2 wild-type (WT) stood at 0.14 nM; at LRRK2 G2019S, 0.28 nM. Further, the apical-to-basolateral permeability (Papp A→B) in the series on MDR1 (P-gp) worked out at 17 ×10⁻⁶ cm/s. In the series with MDR1 (P-gp), the efflux ratio came to 0.8. Also, the free fraction (fraction unbound) was 0.04 in series [1] and 0.012 in series [2]. Moreover, the “Blocking of [^18F]1 binding (ARG)” value in the series with LRRK2 [3] and at LRRK2 [4] was “effectively blocked” throughout.
